Reference: PubChem BioAssay AID330 (DTP/NCI, 2004)
Values joined by “and” are separate entries in the source; they are usually repeats but may differ in a detail not shown here. Equal values may be shown once. Toxic doses and inconclusive results are not listed. How the source made its calls: active means survival T/C of 150% or more; inactive means T/C below 125% in these data.

System: P388 leukemia ip, CD2F1 mice, survival T/C
Assay: NCI In Vivo Anticancer Drug Screen. Data for tumor model P388 Leukemia (intraperitoneal) in CD2F1 (CDF1) mice
Details: endpoint: median survival time, higher = longer survival
In short: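 Mice carrying the transplanted tumor received test compound or vehicle. Survival was recorded in each group, and the value is the treated-group measurement divided by that of the vehicle-treated control group.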

[1] = dose: 60.0 mg/kg/injection, schedule: Q01DX005 (ip), vehicle: saline with Tween-80
[2] = dose: 120.0 mg/kg/injection, schedule: Q01DX005 (ip), vehicle: saline with Tween-80
[3] = dose: 240.0 mg/kg/injection, schedule: Q01DX005 (ip), vehicle: saline with Tween-80
[4] = dose: 100.0 mg/kg/injection, schedule: Q04DX003 (ip), vehicle: Klucel (hydroxypropylcellulose) (HPC)
[5] = dose: 200.0 mg/kg/injection, schedule: Q04DX003 (ip), vehicle: Klucel (hydroxypropylcellulose) (HPC)

Measured: T/C

Nc1ncnc2c1ccn2COCCO
inactive: dose: 50.0 mg/kg/injection, schedule: Q01DX005 (ip), vehicle: distilled water + alcohol 100 % of control | dose: 100.0 mg/kg/injection, schedule: Q01DX005 (ip), vehicle: distilled water + alcohol 101 % of control | dose: 200.0 mg/kg/injection, schedule: Q01DX005 (ip), vehicle: distilled water + alcohol 99 % of control

CC(=O)OC1=C(Br)CCc2ccccc21
inactive: dose: 3.12 mg/kg/injection, schedule: Q01DX009 (ip), vehicle: DMSO 103 % of control | dose: 6.25 mg/kg/injection, schedule: Q01DX009 (ip), vehicle: DMSO 108 % of control | dose: 12.5 mg/kg/injection, schedule: Q01DX009 (ip), vehicle: DMSO 90 % of control and 96 % of control | dose: 25.0 mg/kg/injection, schedule: Q01DX009 (ip), vehicle: DMSO 93 % of control

COc1ccccc1NC(=O)C1=C(C)NC(C)=C(C(=O)Nc2ccccc2OC)C1c1ccc(OC)c(OC)c1
inactive: [1] 103 % of control | [2] 99 % of control | [3] 94 % of control

COC1(OC)C2(Cl)CC(C(=O)O)C1(Cl)C(Cl)=C2Cl (configuration not stated)
inactive: [1] 102 % of control | [2] 99 % of control | [3] 104 % of control

CS/C(=C1/C(=O)N(c2ccccc2)N=C1c1ccc(Br)cc1)N1CC1
inactive: [4] 95 % of control | [5] 101 % of control

COc1cccc2c1C(=O)c1c(O)c3c(c(O)c1C2=O)CC(O)(C1(C)OCCO1)CC3O (configuration not stated)
inactive: dose: 3.13 mg/kg/injection, schedule: Q04DX003 (ip), vehicle: distilled water + Tween-80 99 % of control | dose: 6.25 mg/kg/injection, schedule: Q04DX003 (ip), vehicle: distilled water + Tween-80 99 % of control | dose: 12.5 mg/kg/injection, schedule: Q04DX003 (ip), vehicle: distilled water + Tween-80 99 % of control | dose: 25.0 mg/kg/injection, schedule: Q04DX003 (ip), vehicle: distilled water + Tween-80 96 % of control | dose: 50.0 mg/kg/injection, schedule: Q04DX003 (ip), vehicle: distilled water + Tween-80 98 % of control | dose: 100.0 mg/kg/injection, schedule: Q04DX003 (ip), vehicle: distilled water + Tween-80 98 % of control | dose: 200.0 mg/kg/injection, schedule: Q04DX003 (ip), vehicle: distilled water + Tween-80 106 % of control | dose: 400.0 mg/kg/injection, schedule: Q04DX003 (ip), vehicle: distilled water + Tween-80 106 % of control

CCCCCCC1CC2CCCCN2O1 (configuration not stated)
inactive: dose: 40.0 mg/kg/injection, schedule: Q01DX009 (ip), vehicle: Klucel (hydroxypropylcellulose) (HPC) 113 % of control | dose: 80.0 mg/kg/injection, schedule: Q01DX009 (ip), vehicle: Klucel (hydroxypropylcellulose) (HPC) 107 % of control | dose: 160.0 mg/kg/injection, schedule: Q01DX009 (ip), vehicle: Klucel (hydroxypropylcellulose) (HPC) 119 % of control

O=C(O)Cc1cn2ccncc2n1
inactive: dose: 100.0 mg/kg/injection, schedule: Q01DX001 (ip), vehicle: Klucel (hydroxypropylcellulose) (HPC) 90 % of control | dose: 200.0 mg/kg/injection, schedule: Q01DX001 (ip), vehicle: Klucel (hydroxypropylcellulose) (HPC) 101 % of control | dose: 400.0 mg/kg/injection, schedule: Q01DX001 (ip), vehicle: Klucel (hydroxypropylcellulose) (HPC) 101 % of control

O=[N+]([O-])c1ccc(/C=C/C=C\c2cccc(S(=O)(=O)F)c2)c(Cl)c1
inactive: [4] 90 % of control | [5] 90 % of control | dose: 400.0 mg/kg/injection, schedule: Q04DX003 (ip), vehicle: Klucel (hydroxypropylcellulose) (HPC) 90 % of control

CCN=C(C1=C(O)c2ccccc2C1=O)c1ccccc1
inactive: dose: 50.0 mg/kg/injection, schedule: Q04DX002 (ip), vehicle: saline with Tween-80 94 % of control | dose: 100.0 mg/kg/injection, schedule: Q04DX002 (ip), vehicle: saline with Tween-80 119 % of control | dose: 200.0 mg/kg/injection, schedule: Q04DX002 (ip), vehicle: saline with Tween-80 111 % of control

O=C1NC(=S)N/C1=C/c1ccc2c(c1)CCC2
inactive: dose: 100.0 mg/kg/injection, schedule: Q01DX001 (ip), vehicle: saline with Tween-80 100 % of control | dose: 200.0 mg/kg/injection, schedule: Q01DX001 (ip), vehicle: saline with Tween-80 100 % of control | dose: 400.0 mg/kg/injection, schedule: Q01DX001 (ip), vehicle: saline with Tween-80 95 % of control

O=C1c2ccccc2-c2c1c1ccccc1c(=O)n2-c1ccccc1
inactive: dose: 50.0 mg/kg/injection, schedule: Q01DX005 (ip), vehicle: saline with Tween-80 102 % of control | dose: 100.0 mg/kg/injection, schedule: Q01DX005 (ip), vehicle: saline with Tween-80 107 % of control | dose: 200.0 mg/kg/injection, schedule: Q01DX005 (ip), vehicle: saline with Tween-80 100 % of control

CC12CCC3C(CCC4=CC(OC5OCC(O)C(O)C5O)CCC43C=O)C1(O)CCC2C1=CC(=O)OC1 (configuration not stated)
inactive: dose: 1.0 mg/kg/injection, schedule: Q01DX009 (ip), vehicle: Klucel (hydroxypropylcellulose) (HPC) 99 % of control | dose: 2.0 mg/kg/injection, schedule: Q01DX009 (ip), vehicle: Klucel (hydroxypropylcellulose) (HPC) 105 % of control | dose: 4.0 mg/kg/injection, schedule: Q01DX009 (ip), vehicle: Klucel (hydroxypropylcellulose) (HPC) 97 % of control | dose: 8.0 mg/kg/injection, schedule: Q01DX009 (ip), vehicle: Klucel (hydroxypropylcellulose) (HPC) 108 % of control

O=C(CN1CCOCC1)c1c(-c2ccccc2)[nH]c2ccccc12
inactive: dose: 100.0 mg/kg/injection, schedule: Q04DX003 (ip), vehicle: saline 104 % of control | dose: 200.0 mg/kg/injection, schedule: Q04DX003 (ip), vehicle: saline 102 % of control | dose: 400.0 mg/kg/injection, schedule: Q04DX003 (ip), vehicle: saline 95 % of control

CCOC(=O)Cn1nc([O-])[n+]2ccccc12
inactive: dose: 100.0 mg/kg/injection, schedule: Q04DX002 (ip), vehicle: saline 100 % of control | dose: 200.0 mg/kg/injection, schedule: Q04DX002 (ip), vehicle: saline 107 % of control | dose: 400.0 mg/kg/injection, schedule: Q04DX002 (ip), vehicle: saline 98 % of control

Cc1c(C(=O)O)nc(-c2ccc3c(n2)C(=O)C(N)=CC3=O)c2[nH]c3ccccc3c12
inactive: dose: 0.1 mg/kg/injection, schedule: Q01DX009 (ip), vehicle: distilled water + Tween-80 + alcohol 110 % of control | dose: 0.2 mg/kg/injection, schedule: Q01DX009 (ip), vehicle: distilled water + Tween-80 + alcohol 116 % of control | dose: 0.4 mg/kg/injection, schedule: Q01DX009 (ip), vehicle: distilled water + Tween-80 + alcohol 112 % of control | dose: 0.8 mg/kg/injection, schedule: Q01DX009 (ip), vehicle: distilled water + Tween-80 + alcohol 113 % of control

CCN(CC)Cc1cc(Nc2cc(C)nc3ccc(N(C)C)cc23)ccc1O
inactive: dose: 15.0 mg/kg/injection, schedule: Q01DX005 (ip), vehicle: saline 91 % of control | dose: 30.0 mg/kg/injection, schedule: Q01DX005 (ip), vehicle: saline 100 % of control | dose: 60.0 mg/kg/injection, schedule: Q01DX005 (ip), vehicle: saline 104 % of control and 110 % of control

CCCCCCC1NC1Cc1ccccc1 (configuration not stated)
inactive: dose: 4.5 mg/kg/injection, schedule: Q01DX009 (ip), vehicle: saline with Tween-80 115 % of control | dose: 9.0 mg/kg/injection, schedule: Q01DX009 (ip), vehicle: saline with Tween-80 111 % of control | dose: 18.0 mg/kg/injection, schedule: Q01DX009 (ip), vehicle: saline with Tween-80 110 % of control

CC(NC(=O)C(Cc1cnc[nH]1)NC(=O)OCc1ccccc1)C(=O)O (configuration not stated)
inactive: dose: 50.0 mg/kg/injection, schedule: Q01DX005 (ip), vehicle: Klucel (hydroxypropylcellulose) (HPC) 96 % of control | dose: 100.0 mg/kg/injection, schedule: Q01DX005 (ip), vehicle: Klucel (hydroxypropylcellulose) (HPC) 96 % of control | dose: 200.0 mg/kg/injection, schedule: Q01DX005 (ip), vehicle: Klucel (hydroxypropylcellulose) (HPC) 96 % of control

CC(O)c1cc2c(o1)C(=O)c1cccc(O)c1C2=O (configuration not stated)
inactive: dose: 9.38 mg/kg/injection, schedule: Q01DX005 (ip), vehicle: Klucel (hydroxypropylcellulose) (HPC) 95 % of control | dose: 18.75 mg/kg/injection, schedule: Q01DX005 (ip), vehicle: Klucel (hydroxypropylcellulose) (HPC) 95 % of control | dose: 37.5 mg/kg/injection, schedule: Q01DX005 (ip), vehicle: Klucel (hydroxypropylcellulose) (HPC) 95 % of control
